Read-outs that look alike come from different tables or passages of the source.
Target: PDE-5 (UniProt O76074)
Experiment: In vitro PDE inhibitory activity against PDE5 (batch method or scintillation proximity assay)
Format: biochemical, human
Details: representative compounds
Text: The compounds of the invention are inhibitors of cyclic guanylate monophosphate (cGMP)-specific phosphodiesterase type 5 (PDE-5 inhibitors).
The required PDE enzymes can be isolated from a variety of sources, including human corpus cavernosum, human and rabbit platelets, human cardiac ventricle, human skeletal muscle and bovine retina, essentially by a modification of the method of Thompson, W J et al.; Biochemistry 18(23), 5228-5237, 1979, as described by Ballard S A et al.; J. Urology 159(6), 2164-2171, 1998. In particular, cGMP-specific PDE5 and cGMP-inhibited cAMP PDE3 can be obtained from human corpus cavernosum tissue, human platelets or rabbit platelets; cGMP-stimulated PDE2 was obtained from human corpus cavernosum; calcium/calmodulin (Ca/CAM)-dependent PDE1 from human cardiac ventricle; cAMP-specific PDE4 from human skeletal muscle; and photoreceptor PDE6 from bovine retina. Phosphodiesterases 7-11 can be generated from full length human recombinant clones transfected into SF9 cells.
Assays can be performed either using a modification of the “batch”method of Thompson W J and Appleman M M; Biochemistry 10(2), 311-316, 1971, essentially as described by Ballard S A et al.; J. Urology 159(6), 2164-2171, 1998, or using a scintillation proximity assay for the direct detection of [^3H]-labelled AMP/GMP using a modification of the protocol described by Amersham plc under product code TRKQ7090/7100. In summary, for the scintillation proximity assay the effect of PDE inhibitors was investigated by assaying a fixed amount of enzyme in the presence of varying inhibitor concentrations and low substrate, (cGMP or cAMP in a 3:1 ratio unlabelled to [^3H]-labeled at a concentration of ˜⅓ Km, or less) such that IC50≅Ki. The final assay volume was made up to 100 μl with assay buffer [20 mM Tris-HCl pH 7.4, 5 mM MgCl2, 1 mg/ml bovine serum albumin]. Reactions were initiated with enzyme, incubated for 30-60 min at 30° C. to give <30% substrate turnover and terminated with 50 μl yttrium silicate SPA beads (containing 3 mM of the respective unlabelled cyclic nucleotide for PDEs 9 and 11).

Compound	IC50 (read-out: IC50) [nM]	IC50 [nM]
CCOCCn1nc(C(=O)O)c2nc(N3CCCC3C)nc(Nc3cc(C)ccn3)c21 (centres unmarked) [Example 53]	0.797	
COCCn1nc(C(=O)O)c2nc(N(C)C(C)C)nc(Nc3cc(C)ccn3)c21 [Example 22]	7.12	
Cc1cc(Nc2nc(N(C)C(C)C)nc3c(C(=O)O)nn(CCOCC(F)(F)F)c23)ccc1F [Example 139]	0.071	
CCOCCn1nc(C(=O)O)c2nc(N(C)CC)nc(Nc3cc(C)c(C)cn3)c21 [Example 40]	0.167	
CCOCCn1nc(-c2nnn[nH]2)c2nc(N(C)C(C)C)nc(Nc3cc(C)ccn3)c21 [Example 79]	0.332	
CCN(C)c1nc(Nc2ccc(F)c(C)c2)c2c(n1)c(C(=O)O)nn2CCOCC(F)(F)F [Example 137]	0.068	
CCOCCn1nc(C(=O)O)c2nc(N(C)C)nc(NC3CC3)c21 [Example 35]		100
CCOCCn1nc(C(=O)O)c2nc(N(C)C)nc(Nc3ccc(C)c(C)c3)c21 [Example 102]	38.2	
CCOCCn1nc(C(=O)O)c2nc(N(C)C3CCCC3)nc(Nc3cc(C)ccn3)c21 [Example 18]	11.3	
CCOCCn1nc(C(=O)O)c2nc(N(C)C3CCC3)nc(Nc3cc(C)ccn3)c21 [Example 51]	2.57	
CCN(C)c1nc(Nc2cc(C)ccn2)c2c(n1)c(C(=O)O)nn2CC1CCOCC1 [Example 58]		100
CCOCCn1nc(C(=O)OCC)c2nc(N(C)C(C)C)nc(Nc3cc(C)ccn3)c21 [Example 9]	0.075	
CCOCCn1nc(C(=O)O)c2nc(N(C)CC)nc(Nc3cc(C)ccn3)c21 [Example 96]	3.65	
CCOCCn1nc(C(=O)NS(C)(=O)=O)c2nc(N(C)C)nc(Nc3cc(C)ccn3)c21 [Example 114, N-[5-(Dimethylamino)-1-(2-ethoxyethyl)-7-(4-methylpyridin-2-ylamino)-1H-pyrazolo[4,3-d]pyrimidine-3-carbonyl]methanesulfonamide]	4.83	
CCOCCn1nc(C(=O)O)c2nc(N3CC[C@@H](OC)C3)nc(Nc3cc(C)ccn3)c21 [Example 13]	1.46	
CCOCCn1nc(C(=O)O)c2nc(N(C)CC)nc(Nc3ccnc(OC)n3)c21 [Example 70]	0.451	
CCCOCCn1nc(C(=O)NS(C)(=O)=O)c2nc(N(CC)CC)nc(Nc3cc(C)ccn3)c21 [Example 183, 5-(Diethylamino)-7-[(4-methylpyridin-2-yl)amino]-N-(methylsulfonyl)-1-(2-propoxyethyl)-1H-pyrazolo[4,3-d]pyrimidine-3-carboxamide]	0.383	
CCOCCn1nc(C(=O)NS(C)(=O)=O)c2nc(N(C)CC)nc(Nc3cccc(C)n3)c21 [Example 149]	14.4	
Cc1ccnc(Nc2nc(N(C)C(C)C)nc3c(C(=O)NS(C)(=O)=O)nn(CCOCC(F)(F)F)c23)c1 [Example 179, 5-[Isopropyl(methyl)amino]-7-[(4-methylpyridin-2-yl)amino]-N-(methylsulfonyl)-1-[2-(2,2,2-trifluoroethoxy)ethyl]-1H-pyrazolo[4,3-d]pyrimidine-3-carboxamide]	0.914	
CCCOCCn1nc(C(=O)O)c2nc(N(C)C(C)C)nc(Nc3cc(C)ccn3)c21 [Example 19]	2.43	
CCN(C)c1nc(Nc2cc(C)ccn2)c2c(n1)c(C(=O)NS(C)(=O)=O)nn2CCOCC(F)(F)F [Example 178, 5-[Ethyl(methyl)amino]-7-[(4-methylpyridin-2-yl)amino]-N-(methylsulfonyl)-1-[2-(2,2,2-trifluoroethoxy)ethyl]-1H-pyrazolo[4,3-]pyrimidine-3-carboxamide]	2.21	
CO[C@H](C)Cn1nc(C(=O)O)c2nc(N(C)C)nc(Nc3cc(C)ccn3)c21 [Example 64]	100	
CCOCCn1nc(C(=O)O)c2nc(N(C)CC(C)C)nc(Nc3cc(C)ccn3)c21 [Example 16]	0.51	
CCOCCn1nc(C(=O)O)c2nc(N(C)C)nc(Nc3ccnc(OC)n3)c21 [Example 71]	2.46	
CCOCCn1nc(C(=O)O)c2nc(N(C)C(C)C)nc(Nc3ccc(F)c(F)c3)c21 [Example 90]	2.83	
CCOCCn1nc(C(=O)O)c2nc(N(C)C(C)C)nc(Nc3cc(C)cc(C)n3)c21 [Example 26]	1.64	

— patent publication US7572799B2, “Pyrazolo[4,3-d]pyrimidines as Phosphodiesterase Inhibitors” (Pfizer Inc, priority 2003, dated 2009)
